Assay results from US11174252B2, “Heterocyclic compounds as kinase inhibitors” (priority 2018, dated 2021).
pIC50: −log10 of the molar value. Structures can show the parent of a compound that is named as a salt. Where two headings read alike, the source gives them in different places.

Assays:
[1] = biological target: CDK6 (Homo sapiens (Human), UniProt Q00534); experiment: biochemical; type: biochemical
[2] = biological target: CDK4 (Homo sapiens (Human), UniProt P11802); experiment: In vitro kinase inhibition, luminescence (ADP-Glo) with retinoblastoma substrate; type: biochemical
[3] = biological target: FMS kinase (Homo sapiens (Human), UniProt P07333); experiment: LanthaScreen kinase assay (ATP, fluorescent-PolyGT substrate, TR-FRET); type: biochemical
[4] = test system: MCF-7; experiment: Cancer cell proliferation assay, single agent; type: cell-based; conditions: Homo sapiens
[5] = MCF7, MCF-7 cells, treated for 24-168 hours, read-out: IC50 (nM) MCF-7
[6] = MCF7, read-out: IC50 (nM) MCF-7

Chain of FMS kinase (P07333 20-972): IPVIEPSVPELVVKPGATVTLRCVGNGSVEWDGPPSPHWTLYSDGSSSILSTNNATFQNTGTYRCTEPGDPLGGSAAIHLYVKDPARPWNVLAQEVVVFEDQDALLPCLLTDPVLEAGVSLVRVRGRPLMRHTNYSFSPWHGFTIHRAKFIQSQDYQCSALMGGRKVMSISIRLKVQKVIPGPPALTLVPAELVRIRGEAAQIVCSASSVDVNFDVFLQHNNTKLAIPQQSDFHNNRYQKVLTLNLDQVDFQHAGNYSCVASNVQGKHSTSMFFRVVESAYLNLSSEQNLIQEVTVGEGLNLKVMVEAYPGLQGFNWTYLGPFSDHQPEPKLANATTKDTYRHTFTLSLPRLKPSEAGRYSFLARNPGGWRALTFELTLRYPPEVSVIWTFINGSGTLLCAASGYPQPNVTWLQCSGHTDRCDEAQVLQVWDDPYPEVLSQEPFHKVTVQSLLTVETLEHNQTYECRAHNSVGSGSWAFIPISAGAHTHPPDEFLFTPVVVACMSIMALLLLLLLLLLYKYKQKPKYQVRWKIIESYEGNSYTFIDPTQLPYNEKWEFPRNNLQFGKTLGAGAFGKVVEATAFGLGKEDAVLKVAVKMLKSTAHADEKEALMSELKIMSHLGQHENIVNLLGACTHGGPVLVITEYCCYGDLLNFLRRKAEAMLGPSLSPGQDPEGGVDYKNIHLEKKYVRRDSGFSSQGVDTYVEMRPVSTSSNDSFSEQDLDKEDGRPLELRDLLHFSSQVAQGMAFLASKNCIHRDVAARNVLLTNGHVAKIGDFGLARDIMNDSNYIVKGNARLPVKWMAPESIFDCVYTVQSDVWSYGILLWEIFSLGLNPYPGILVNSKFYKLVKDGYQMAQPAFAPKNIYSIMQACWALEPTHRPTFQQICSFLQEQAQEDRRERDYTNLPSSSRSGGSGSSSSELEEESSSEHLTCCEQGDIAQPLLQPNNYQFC
Chain of CDK4 (P11802 whole entry): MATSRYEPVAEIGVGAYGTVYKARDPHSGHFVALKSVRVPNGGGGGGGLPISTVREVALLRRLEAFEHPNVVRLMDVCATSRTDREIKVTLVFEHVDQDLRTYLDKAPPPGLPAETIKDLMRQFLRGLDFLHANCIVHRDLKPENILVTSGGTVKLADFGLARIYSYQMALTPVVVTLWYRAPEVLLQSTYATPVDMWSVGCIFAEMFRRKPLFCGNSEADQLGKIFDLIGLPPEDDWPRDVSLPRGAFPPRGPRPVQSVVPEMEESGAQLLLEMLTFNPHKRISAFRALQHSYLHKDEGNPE
Chain of CDK4 (P24385 whole entry partner): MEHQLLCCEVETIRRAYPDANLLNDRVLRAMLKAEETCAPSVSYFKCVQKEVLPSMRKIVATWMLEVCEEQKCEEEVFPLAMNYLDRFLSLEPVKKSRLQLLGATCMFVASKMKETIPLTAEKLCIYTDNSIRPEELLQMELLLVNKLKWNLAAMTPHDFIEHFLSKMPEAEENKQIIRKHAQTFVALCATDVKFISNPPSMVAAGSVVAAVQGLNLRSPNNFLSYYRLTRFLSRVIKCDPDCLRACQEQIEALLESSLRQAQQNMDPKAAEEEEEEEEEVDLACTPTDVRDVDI

Row | pIC50 [1] | pIC50 [2] | Compound | pIC50 [3] | IC50 [4, 5] | IC50 [4, 6]
1 | 6.96 | 7.36 | CCCc1nc(Nc2ncc(F)c(-c3cc(F)c4c(c3)N(C(C)C)CCO4)n2)ccc1C1CCN(C)CC1 [Compound 848, 5-fluoro-4-(8-fluoro-4-isopropyl-3,4-dihydro-2H-benzo[b][1,4]oxazin-6-yl)-N-(5-(1-methylpiperidin-4-yl)-6-propylpyridin-2-yl)pyrimidin-2-amine] | – | – | –
2 | – | – | CC(C)N1CCOc2c(F)cc(-c3nc(Nc4cc(N5CCNCC5)ccn4)ncc3F)cc21 [Compound 5, 5-fluoro-4-(8-fluoro-4-isopropyl-3,4-dihydro-2H-benzo[b][1,4]oxazin-6-yl)-N-(4-(piperazin-1-yl)pyridin-2-yl)pyrimidin-2-amine] | < 5.44 | – | –
3 | – | – | CC(C)N1CCc2ccc(Nc3ncc(F)c(-c4cc(F)c5c(c4)N(C(C)C)CCO5)n3)cc2C1 [Compound 19, N-(5-fluoro-4-(8-fluoro-4-isopropyl-3,4-dihydro-2H-benzo[b][1,4]oxazin-6-yl)pyrimidin-2-yl)-2-isopropyl-1,2,3,4-tetrahydroisoquinolin-7-amine] | 8.52 | < 10 nM | –
4 | – | – | CC(C)N1CCOc2c(F)cc(-c3nc(Nc4ccc(N5CCC(N(C)C)CC5)c(C(F)(F)F)c4)ncc3F)cc21 [Compound 178, N-(4-(4-(dimethylamino)piperidin-1-yl)-3-(trifluoromethyl)phenyl)-5-fluoro-4-(8-fluoro-4-isopropyl-3,4-dihydro-2H-benzo[b][1,4]oxazin-6-yl)pyrimidin-2-amine] | 8.30 | 210 nM | –
5 | – | – | CC(C)N1CCOc2c(F)cc(-c3nc(Nc4ccc(N5CCN(C)CC5)cc4)ncc3F)cc21 [Compound 6, 5-fluoro-4-(8-fluoro-4-isopropyl-3,4-dihydro-2H-benzo[b][1,4]oxazin-6-yl)-N-(4-(4-methylpiperazin-1-yl)phenyl)pyrimidin-2-amine] | 7.09 | 30 nM | –
6 | – | – | CC(C)N1CCOc2c(F)cc(-c3nc(Nc4ccc5c(c4)CC(N(C)C)C5)ncc3F)cc21 (stereo not shown) [Compound 37, N^5-(5-fluoro-4-(8-fluoro-4-isopropyl-3,4-dihydro-2H-benzo[b][1,4]oxazin-6-yl)pyrimidin-2-yl)-N^2,N^2-dimethyl-2,3-dihydro-1H-indene-2,5-diamine] | – | – | < 14 nM
7 | – | – | CCN1CCN(Cc2ccc(Nc3ncc(F)c(-c4cc(F)c5c(c4)N(C(=O)C4CC4)CCO5)n3)nc2)CC1 [Compound 8, cyclopropyl(6-(2-((5-((4-ethylpiperazin-1-yl)methyl)pyridin-2-yl)amino)-5-fluoropyrimidin-4-yl)-8-fluoro-2,3-dihydro-4H-benzo[b][1,4]oxazin-4-yl)methanone] | < 5.30 | – | –
8 | – | – | CC(C)N1CCOc2c(F)cc(-c3nc(Nc4cc(F)c(N5CCNCC5)cc4F)ncc3F)cc21 [Compound 31, N-(2,5-difluoro-4-(piperazin-1-yl)phenyl)-5-fluoro-4-(8-fluoro-4-isopropyl-3,4-dihydro-2H-benzo[b][1,4]oxazin-6-yl)pyrimidin-2-amine] | 7.31 | – | 193 nM
9 | – | – | CC(C)N1CCOc2c(F)cc(-c3nc(Nc4ccn(C5=CCNCC5)c(=O)c4)ncc3F)cc21 [Compound 39, 4-((5-fluoro-4-(8-fluoro-4-isopropyl-3,4-dihydro-2H-benzo[b][1,4]oxazin-6-yl)pyrimidin-2-yl)amino)-1′,2′,3′,6′-tetrahydro-2H-[1,4′-bipyridin]-2-one] | 7.48 | 45 nM | –
10 | – | – | CC(C)N1CCOc2c(F)cc(-c3nc(Nc4ccc5c(c4)CNCC5)ncc3F)cc21 [Compound 16, N-(5-fluoro-4-(8-fluoro-4-isopropyl-3,4-dihydro-2H-benzo[b][1,4]oxazin-6-yl)pyrimidin-2-yl)-1,2,3,4-tetrahydroisoquinolin-7-amine] | 8.60 | – | 3.8 nM
11 | – | – | CC(C)N1CCOc2c(F)cc(-c3nc(Nc4ccc(N5CCNCC5)cc4F)ncc3F)cc21 [Compound 11, 5-fluoro-N-(2-fluoro-4-(piperazin-1-yl)phenyl)-4-(8-fluoro-4-isopropyl-3,4-dihydro-2H-benzo[b][1,4]oxazin-6-yl)pyrimidin-2-amine] | 6.60 | – | 225 nM
12 | – | – | CC(C)N1CCc2c(cccc2Nc2ncc(F)c(-c3cc(F)c4c(c3)N(C(C)C)CCO4)n2)C1 [Compound 20, N-(5-fluoro-4-(8-fluoro-4-isopropyl-3,4-dihydro-2H-benzo[b][1,4]oxazin-6-yl)pyrimidin-2-yl)-2-isopropyl-, 2,3,4-tetrahydroisoquinolin-5-amine] | 7.77 | 145 nM | –
13 | 7.54 | 7.64 | CC(C)N1CCOc2c(F)cc(-c3nc(Nc4ccc(C5CCN(C)CC5)c(C#N)n4)ncc3F)cc21 [Compound 845, 6-((5-fluoro-4-(8-fluoro-4-isopropyl-3,4-dihydro-2H-benzo[b][1,4]oxazin-6-yl)pyrimidin-2-yl)amino)-3-(1-methylpiperidin-4-yl)picolinonitrile] | – | – | –
14 | – | – | CC(C)N1CCOc2c(F)cc(-c3nc(Nc4ccc(C5CCNCC5)c(F)c4)ncc3F)cc21 [Compound 18, 5-fluoro-N-(3-fluoro-4-(piperidin-4-yl)phenyl)-4-(8-fluoro-4-isopropyl-3,4-dihydro-2H-benzo[b][1,4]oxazin-6-yl) pyrimidin-2-amine] | 7.72 | – | < 10 nM
15 | 8.40 | 8.52 | CC(C)N1CCOc2c(F)cc(-c3nc(Nc4ccc(C5CCN(C)CC5)c(F)n4)ncc3F)cc21 [Compound 846, 5-fluoro-4-(8-fluoro-4-isopropyl-3,4-dihydro-2H-benzo[b][1,4]oxazin-6-yl)-N-(6-fluoro-5-(1-methylpiperidin-4-yl)pyridin-2-yl)pyrimidin-2-amine] | – | – | –
16 | – | – | CC(C)N1CCOc2c(F)cc(-c3nc(Nc4ccc(N5CCN(C)CC5)c(F)c4)ncc3F)cc21 [Compound 14, 5-fluoro-N-(3-fluoro-4-(4-methylpiperazin-1-yl)phenyl)-4-(8-fluoro-4-isopropyl-3,4-dihydro-2H-benzo[b][1,4]oxazin-6-yl) pyrimidin-2-amine] | 7.31 | – | 11 nM
17 | – | – | COc1cc(Nc2ncc(F)c(-c3cc(F)c4c(c3)N(C(C)C)CCO4)n2)ccc1N1CCNCC1 [Compound 29, 5-fluoro-4-(8-fluoro-4-isopropyl-3,4-dihydro-2H-benzo[b][1,4]oxazin-6-yl)-N-(3-methoxy-4-(piperazin-1-yl)phenyl)pyrimidin-2-amine] | 8.60 | – | 48 nM
18 | – | – | CC(C)N1CCOc2c(F)cc(-c3nc(Nc4ccc(N5CCNCC5)c(F)c4F)ncc3F)cc21 [Compound 28, N-(2,3-difluoro-4-(piperazin-1-yl)phenyl)-5-fluoro-4-(8-fluoro-4-isopropyl-3,4-dihydro-2H-benzo[b][1,4]oxazin-6-yl)pyrimidin-2-amine] | 6.91 | – | 150 nM
19 | – | – | CC(C)N1CCOc2c(F)cc(-c3nc(Nc4ccc5c(c4)CCNC5)ncc3F)cc21 [Compound 13, N-(5-fluoro-4-(8-fluoro-4-isopropyl-3,4-dihydro-2H-benzo[b][1,4]oxazin-6-yl)pyrimidin-2-yl)-1,2,3,4-tetrahydroisoquinolin-6-amine] | – | – | 3.8 nM
20 | – | – | CC(C)N1CCOc2c(F)cc(-c3nc(Nc4ccc(N5CCNCC5)c(C#N)c4)ncc3F)cc21 [Compound 21, 5-((5-fluoro-4-(8-fluoro-4-isopropyl-3,4-dihydro-2H-benzo[b][1,4]oxazin-6-yl)pyrimidin-2-yl)amino)-2-(piperazin-1-yl) benzonitrile] | 6.79 | – | < 10 nM
21 | 7.46 | 7.51 | COc1nc(Nc2ncc(F)c(-c3cc(F)c4c(c3)N(C(C)C)CCO4)n2)ccc1C1CCN(C)CC1 [Compound 844, 5-fluoro-4-(8-fluoro-4-isopropyl-3,4-dihydro-2H-benzo[b][1,4]oxazin-6-yl)-N-(6-methoxy-5-(1-methylpiperidin-4-yl)pyridin-2-yl)pyrimidin-2-amine] | – | – | –
22 | – | – | CC(C)N1CCc2cc(Nc3ncc(F)c(-c4cc(F)c5c(c4)N(C(C)C)CCO5)n3)ccc2C1 [Compound 22, N-(5-fluoro-4-(8-fluoro-4-isopropyl-3,4-dihydro-2H-benzo[b][1,4]oxazin-6-yl)pyrimidin-2-yl)-2-isopropyl-1,2,3,4-tetrahydroisoquinolin-6-amine] | 8.19 | < 10 nM | –
23 | 6.97 | 7.36 | CC(C)N1CCOc2c(F)cc(-c3nc(Nc4ccc(C5CCN(C)CC5)c(C5CC5)n4)ncc3F)cc21 [Compound 847, N-(6-cyclopropyl-5-(1-methylpiperidin-4-yl)pyridin-2-yl)-5-fluoro-4-(8-fluoro-4-isopropyl-3,4-dihydro-2H-benzo[b][1,4]oxazin-6-yl)pyrimidin-2-amine] | – | – | –
24 | – | – | CC(C)N1CCOc2c(F)cc(-c3nc(Nc4cccc5c4CCNC5)ncc3F)cc21 [Compound 15, N-(5-fluoro-4-(8-fluoro-4-isopropyl-3,4-dihydro-2H-benzo[b][1,4]oxazin-6-yl)pyrimidin-2-yl)-1,2,3,4-tetrahydroisoquinolin-5-amine] | 7.66 | – | 114 nM

Row | Compound | pIC50 [1] | pIC50 [2] | pIC50 [3] | IC50 [4, 5] | IC50 [4, 6]
25 | COC1CCN(c2ccc(Nc3ncc(F)c(-c4cc(F)c5c(c4)N(C(C)C)CCO5)n3)nc2)CC1 [Compound 843, 5-fluoro-4-(8-fluoro-4-isopropyl-3,4-dihydro-2H-benzo[b][1,4]oxazin-6-yl)-N-(5-(4-methoxypiperidin-1-yl)pyridin-2-yl)pyrimidin-2-amine hydrochloride] | 7.62 | 7.19 | – | – | –
26 | CC(C)N1CCN(c2ccc(Nc3ncc(F)c(-c4cc(F)c5c(c4)N(C(C)C)CCO5)n3)cc2F)CC1 [Compound 17, 5-fluoro-N-(3-fluoro-4-(4-isopropylpiperazin-1-yl)phenyl)-4-(8-fluoro-4-isopropyl-3,4-dihydro-2H-benzo[b][1,4]oxazin-6-yl)pyrimidin-2-amine] | – | 8.10 | 7.68 | – | 15 nM
